Data taken from patent publication US4605744A, “Imidazole derivatives” (Hoffmann-La Roche Inc., priority 1985, dated 1986).
Values after ≈ are worked out from the molar mass of the structure shown. Counter-ions that a name gives are not always drawn. Like-named read-outs stand apart in the source and are kept apart here.

Key:
Format in all cases: cell-based
[1] = system: E. coli 257; experiment: In vitro antibacterial activity (MIC, Mueller-Hinton broth)
Method: Drug dilutions are prepared in Mueller-Hinton broth ranging from 128 to 0.008 μg/ml. The diluted agents are dispensed in 100 μl amounts into the wells of a 96-well tray and used immediately or frozen at -10° to -70° C. until needed. Using an automated inoculator, 1.5 μl of a 10^-2 dilution of an overnight culture is added to each well of the tray. The tops of the trays are then sealed using transparent tape and incubated overnight at 37° C. The trays are examined with the aid of a viewer. The lowest concentration at which no growth is observed is considered to be the minimum inhibitory concentration (MIC).

[2] = system: C. freundii 8ASM; experiment: In vitro antibacterial activity (MIC); settings: Citrobacter freundii, 8ASM
Summary of the method: (§1)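 Mueller-Hinton broth carries the compound at 128–0.008 μg/ml; diluted drug may be used fresh or stored frozen at -10° to -70° C before use. Wells are seeded with a 10^-2 dilution of overnight culture and incubated overnight at 37° C.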

[3] = system: C. freundii CDC6; experiment: In vitro antibacterial activity (MIC); settings: Citrobacter freundii
Summary of the method: as §1

[4] = system: E. cloacae 24; experiment: In vitro antibacterial activity (MIC); settings: Enterobacter cloacae, 24, E. cloacae 24; read-out: MIC
Summary of the method: as §1

[5] = system: E. cloacae 5699; experiment: In vitro antibacterial activity (MIC); settings: Enterobacter cloacae, 5699, E. cloacae 5699; read-out: MIC
Summary of the method: as §1

[6] = system: E. cloacae P99; experiment: In vitro antibacterial activity (MIC); settings: Enterobacter cloacae, P99, E. cloacae P99
Summary of the method: as §1

[7] = system: E. coli R-563; experiment: In vitro antibacterial activity (MIC); settings: Escherichia coli
Summary of the method: as §1

[8] = system: K. pneumoniae 5096; experiment: In vitro antibacterial activity (MIC); settings: Klebsiella pneumoniae; K. pneumoniae 5096; read-out: MIC
Summary of the method: as §1

[9] = system: K. pneumoniae A; experiment: In vitro antibacterial activity (MIC); settings: Klebsiella pneumoniae
Summary of the method: as §1

[10] = system: P. aeruginosa 503-56; experiment: In vitro antibacterial activity (MIC); settings: Pseudomonas aeruginosa, 50356, P. aeruginosa 503-56; read-out: MIC
Summary of the method: as §1

[11] = system: P. aeruginosa 8710; experiment: In vitro antibacterial activity (MIC); settings: Pseudomonas aeruginosa; P. aeruginosa 8710; read-out: MIC
Summary of the method: as §1

[12] = system: P. mirabilis 190; experiment: In vitro antibacterial activity (MIC); settings: Proteus mirabilis, 190, P. mirabilis 190; read-out: MIC
Summary of the method: as §1

[13] = system: P. mirabilis 503-1136; experiment: In vitro antibacterial activity (MIC); settings: Proteus mirabilis, 5031136, P. mirabilis 503-1136; read-out: MIC
Summary of the method: as §1

[14] = system: P. mirabilis 90; experiment: In vitro antibacterial activity (MIC); settings: Proteus mirabilis, 90, P. mirabilis 90; read-out: MIC
Summary of the method: as §1

[15] = system: P. rettgeri ATCC 9250; experiment: In vitro antibacterial activity (MIC); settings: Providencia rettgeri, ATCC9250, P. rettgeri ATCC 9250; read-out: MIC
Summary of the method: as §1

[16] = system: P. vulgaris ATCC 6380; experiment: In vitro antibacterial activity (MIC); settings: Proteus vulgaris
Summary of the method: as §1

[17] = system: S. marcescens S3; experiment: In vitro antibacterial activity (MIC); settings: Serratia marcescens; S. marcescens S3; read-out: MIC
Summary of the method: as §1

[18] = system: S. pneumoniae 6301; experiment: In vitro antibacterial activity (MIC); settings: Streptococcus pneumoniae, 6301, S. pneumoniae 6301; read-out: MIC
Summary of the method: as §1

[19] = system: S. pneumoniae 6302; experiment: In vitro antibacterial activity (MIC); settings: Streptococcus pneumoniae, 6302, S. pneumoniae 6302; read-out: MIC
Summary of the method: as §1

[20] = system: S. pneumoniae SC; experiment: In vitro antibacterial activity (MIC); settings: Streptococcus pneumoniae, read-out: MIC
Summary of the method: as §1

[21] = system: S. pyogenes 4; experiment: In vitro antibacterial activity (MIC); settings: Streptococcus pyogenes, 4, S. pyogenes 4; read-out: MIC
Summary of the method: as §1

[22] = system: S. typhi P58A; experiment: In vitro antibacterial activity (MIC); settings: Salmonella enterica, TYPHI
Summary of the method: as §1

[23] = C. freundii 8ASM, read-out: MIC
[24] = Escherichia coli, 257, E. coli 257, read-out: MIC
[25] = CDC6, C. freundii CDC6, read-out: MIC
[26] = R563, E. coli R-563, read-out: MIC
[27] = ATCC6380, P. vulgaris ATCC 6380, read-out: MIC

SMILES | MIC [2, 23] [µg/mL] | MIC [4] [µg/mL] | MIC [5] [µg/mL] | MIC [6] [µg/mL] | MIC [8] [µg/mL] | MIC ([9]; K. pneumoniae A, read-out: MIC) [µg/mL] | MIC [10] [µg/mL] | MIC [11] [µg/mL] | MIC [12] [µg/mL] | MIC [13] [µg/mL] | MIC [14] [µg/mL] | MIC [15] [µg/mL] | MIC [17] [µg/mL] | MIC [18] [µg/mL] | MIC [19] [µg/mL] | MIC [20] [µg/mL] | MIC [21] [µg/mL] | MIC [22] [µg/mL] | MIC [3, 25] [µg/mL] | MIC [7, 26] [µg/mL] | other results
CC1(C)S[C@@H]2[C@H](N=CN3CCC(Cn4ccnc4)CC3)C(=O)N2[C@H]1C(=O)O [Compound A] | 0.062 (≈ 0.158 µM) | 0.5 (≈ 1.28 µM) | 0.5 (≈ 1.28 µM) | 0.25 (≈ 0.639 µM) | 64 (≈ 163 µM) | < 0.008 | > 128 | > 128 | 0.25 (≈ 0.639 µM) | 8 (≈ 20.4 µM) | 1 (≈ 2.55 µM) | 0.5 (≈ 1.28 µM) | 0.25 (≈ 0.639 µM) | 1 (≈ 2.55 µM) | 2 (≈ 5.11 µM) | 2 (≈ 5.11 µM) | 1 (≈ 2.55 µM) | 0.25 (≈ 0.639 µM) | – | – | MIC ([1]; Escherichia coli, 257): 0.125 µg/mL (≈ 0.319 µM); MIC ([3]; CDC6): 0.125 µg/mL (≈ 0.319 µM); MIC ([7]; R563): 0.125 µg/mL (≈ 0.319 µM); MIC ([16]; ATCC6380): 0.125 µg/mL (≈ 0.319 µM)
Cc1nc(C)n(CCCC2CCN(C=N[C@@H]3C(=O)N4[C@@H]3SC(C)(C)[C@@H]4C(=O)O)CC2)c1C [E, [2S-(2alpha,5alpha,6beta)]-6[[4-[3-[(2,4,5-trimethyl-1H-imidazol-1-yl)propyl]-1-piperidinyl]methylene]amino]-3,3-dimethyl-7-oxo-4-thia-1-azabicyclo[3.2.0]heptane-2-carboxylic acid hydrate hydrochloride] | < 0.008 | 0.5 | 0.125 | 0.125 | > 128 | 0.062 | > 128 | > 128 | 0.25 | 4 | 0.5 | 0.5 | 0.25 | 1 | 1 | 0.5 | 0.5 | 0.062 | 0.125 | 4 | MIC [1, 24]: 0.062 µg/mL; MIC [16, 27]: 0.062 µg/mL
Cc1nccn1CCCC1CCN(C=N[C@@H]2C(=O)N3[C@@H]2SC(C)(C)[C@@H]3C(=O)O)CC1 [F, [2S-(2alpha,5alpha,6beta)]-3,3-dimethyl-6-[[[4-[3-(2-methyl-1H-imidazol-1-yl)propyl]-1-piperidinyl]methylene]amino]-7-oxo-4-thia-1-azabicyclo[3.2.0]heptane-2-carboxylic acid 1.15 molar hydrochloride 1.75 molar hydrate] | 0.062 | 0.25 | 0.25 | 0.125 | 64 | 0.031 | > 128 | > 128 | 0.25 | 8 | 0.5 | 0.25 | 0.25 | 1 | 2 | 1 | 0.5 | 0.062 | 0.062 | 0.062 | MIC [1, 24]: 0.125 µg/mL; MIC [16, 27]: 0.25 µg/mL
CCc1nc(C)cn1CCCC1CCN(C=N[C@@H]2C(=O)N3[C@@H]2SC(C)(C)[C@@H]3C(=O)O)CC1 [G, [2S-(2alpha,5alpha,6beta)]-6-[[[4-[3-(2-ethyl-4methyl-1H-imidazol-1-yl)propyl]piperidinyl]methylene]amino]-3,3-dimethyl-7-oxo-4-thia-1-azabicyclo[3.2.0]heptane-2-carboxylic acid hydrochloride] | – | 0.5 | 0.5 | 0.5 | 128 | – | > 128 | > 128 | 0.5 | 16 | 1 | 1 | 1 | 1 | 2 | 1 | 1 | 0.25 | 0.25 | 0.25 | MIC ([1]; Escherichia coli, 257): 0.25 µg/mL; MIC [2]: 0.125 µg/mL; MIC [9]: 0.125 µg/mL; MIC [16, 27]: 0.25 µg/mL
CC1(C)S[C@@H]2[C@H](N=CN3CCC(Cn4ccnc4N)CC3)C(=O)N2[C@H]1C(=O)O [H, [2S-(2alpha,5alpha,6beta)]-6-[[[4-[(2-amino-1H-imidazol-1-yl)methyl-1-piperidinyl]methylene]amino]-3,3-dimethyl-7-oxo-4-thia-1-azabicyclo[3.2.0]heptane-2-carboxylic acid hydrochloride] | 0.031 | 0.25 | 0.25 | 0.062 | 64 | 0.031 | 32 | 128 | 0.125 | 4 | 0.125 | 0.25 | 0.125 | 1 | 1 | 1 | 1 | 0.062 | 0.062 | 0.062 | MIC ([1]; Escherichia coli, 257): 0.25 µg/mL; MIC [16, 27]: 0.062 µg/mL
CC1(C)S[C@@H]2[C@H](N=CN3CCC(Cn4ccnc4CN)CC3)C(=O)N2[C@H]1C(=O)O [J, [2S-(2alpha,5alpha,6beta)]-6-[[[4-[[2-(aminomethyl)-1H-imidazol-1-yl]methyl]-1-piperidinyl]methylene]amino]-3,3-dimethyl-7-oxo-4-thia-1-azabicyclo[3.2.0]heptane-2-carboxylic acid hydrochloride] | 0.125 | 0.5 | 4 | 8 | 128 | 0.062 | 64 | > 128 | 0.5 | 8 | 1 | 16 | 0.25 | 1 | 4 | 4 | 4 | 8 | 64 | 0.125 | MIC [1, 24]: 0.125 µg/mL; MIC [16, 27]: 0.125 µg/mL
CC1(C)S[C@@H]2[C@H](N=CN3CCC(CCCn4ccnc4[N+](=O)[O-])CC3)C(=O)N2[C@H]1C(=O)O [K, [2S-(2alpha,5alpha,6beta)]-6-[[[4-[3-(2-nitro-1H-imidazol-1-yl)propyl]piperidinyl]methylene]amino]-3,3-dimethyl-7-oxo-4-thia-1-azabicyclo[3.2.0]heptane-2-carboxylic acid hydrochloride 0.66 molar hydrate] | 0.25 | 1 | 1 | 0.5 | 16 | 0.25 | > 128 | > 128 | 0.5 | 8 | 8 | 2 | 4 | 1 | 1 | 1 | 0.5 | 0.5 | 0.5 | 0.5 | MIC ([1]; Escherichia coli, 257): 0.5 µg/mL; MIC [16, 27]: 0.5 µg/mL
CC1(C)S[C@@H]2[C@H](N=CN3CCC(C4=NCCN4)CC3)C(=O)N2[C@H]1C(=O)O [L, [2S-(2alpha,5alpha,6beta)]-6-[[[4-(4,5-dihydro-1H-imidazol-2-yl)-1-piperidinyl]methylene]amino]-3,3-dimethyl-7-oxo-4-thia-1-azabicyclo[3.2.0]heptane-2-carboxylic acid hydrochloride] | 0.25 | 1 | 1 | 0.25 | 64 | 0.25 | 64 | 128 | 0.5 | 8 | 2 | 1 | 0.5 | 0.5 | 1 | 1 | 0.5 | 0.5 | 0.5 | 0.25 | MIC [1, 24]: 1 µg/mL; MIC [16, 27]: 0.25 µg/mL
